Experimental findings from US7767685B2, “Adenosine A2B receptor antagonists” (King Pharmaceuticals Research and Development, Inc., priority 2006, dated 2010) are described below.

In the first assay the target is T1, human A2A adenosine receptors (Homo sapiens, UniProt P29274).
T1 construct: expressed in transfected cells; host or cells: CHO cells (membranes)
T1 sequence (P29274 whole entry): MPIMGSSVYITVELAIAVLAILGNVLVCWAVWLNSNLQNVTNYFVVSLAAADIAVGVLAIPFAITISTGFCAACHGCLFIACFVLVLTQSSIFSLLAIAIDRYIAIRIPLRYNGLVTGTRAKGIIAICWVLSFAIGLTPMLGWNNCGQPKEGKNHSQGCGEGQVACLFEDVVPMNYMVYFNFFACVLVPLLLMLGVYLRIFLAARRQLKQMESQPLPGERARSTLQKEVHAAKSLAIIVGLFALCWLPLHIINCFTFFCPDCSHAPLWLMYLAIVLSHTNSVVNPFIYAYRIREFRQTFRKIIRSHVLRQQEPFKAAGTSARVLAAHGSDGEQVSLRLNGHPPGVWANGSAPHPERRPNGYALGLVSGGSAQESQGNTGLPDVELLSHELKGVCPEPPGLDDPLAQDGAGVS
In words: Displacement of [3H]ZM241385 binding at human A2A adenosine receptors expressed in CHO cells. Conditions: [3H]ZM241385 displacement, n = 3-6, geometric mean (95% confidence limits), read-out: Ki hA2A. How it is done:
The human adenosine receptors have been transfected in CHO cells according with the method previously described by Klotz et al. (Naunyn-Schmied. Arch Pharm. 1998, 357: 1-9). Briefly, the cells are grown adherently and maintained in Dulbecco's Modified Eagles Medium with nutrient mixture F12 (DMEM/F12) without nucleosides, containing 10% fetal calf serum, penicillin (100 U/mL), streptomycin (100 μg/mL), L-glutamine (2 mM) and Geneticin (G418, 0.2 mg/ml) at 37° C. in 5% CO2/95% air. For membrane preparation the culture medium is removed and the cells are washed with phosphate-buffered saline and scraped off T75 flasks in ice-cold hypo tonic buffer (5 mM Tris HCl, 1 mM EDTA, pH 7.4). The cell suspension is homogenized with Polytron, the homogenate is spun for 10 min at 1000×g and the supernatant is then centrifuged for 30 min at 100,000×g. The membrane pellet is suspended in 50 mM Tris HCl buffer (pH 7.4) for A1 adenosine receptors, in 50 mM Tris HCl, 10 mM MgCl2 (pH 7.4) for A2A adenosine receptors, in 50 mM Tris HCl, 10 mM MgCl2, 1 mM EDTA (pH 7.4) for A2B and A3 adenosine receptors.
All new synthesized compounds have been tested to evaluate their affinity to human A1, A2A, A2B and A3 adenosine receptors. Displacement experiments of [^3H]-DPCPX to CHO cells transfected with the human recombinant A1 adenosine receptors are performed for 120 min at 25° C. incubating diluted membranes (50 μg of protein/assay) and at least 6-8 different concentrations of examined antagonists (Varani et al., Mol. Pharmacol., 2000, 57: 968-975). Non-specific binding is determined in the presence of 10 μM of CHA and this is always ≦10% of the total binding. Binding of [^3H]-ZM 241385 to CHO cells transfected with the human recombinant A2A adenosine receptors is performed using a suspension of membranes (50 μg of protein/assay) and at least 6-8 different concentrations of studied antagonists for an incubation time of 60 min at 4° C. Non-specific binding is determined in the presence of 1 μM ZM 241385 and is about 20% of total binding. Competition binding experiments of [^3H]-MRE 2029F20 to CHO cells transfected with the human recombinant A2B adenosine receptors are carried out incubating for 120 min at 4° C. diluted membranes (50 μg of protein/assay) and at least 6-8 different concentrations of examined compounds. Non-specific binding is defined as binding in the presence of 1 μM MRE 3029F20 and is about 25% of total binding. Competition binding experiments of [^3H]-MRE 3008F20 to CHO cells transfected with the human recombinant A3 adenosine receptors^5 are carried out incubating for 120 min at 4° C. diluted membranes (50 μg of protein/assay) and at least 6-8 different concentrations of examined ligands. Non-specific binding is defined as binding in the presence of 1 μM MRE 3008F20 and is about 25% of total binding. Bound and free radioactivity are separated by filtering the assay mixture through Whatman GF/B glass fiber filters using a Micro-Mate 196 cell harvester (Packard Instrument Co.). The filter bound radioactivity is counted on a Top Count (efficiency 57%) with Micro-Scint 20.
The protein concentration is determined according to a Bio-Rad method (Bradford, Anal Biochem. 1976, 72: 248-254) with bovine albumin as a standard reference. Inhibitory binding constant, Ki, values are calculated from those of IC50 according to Cheng & Prusoff equation (Biochem. Pharmacol 1973, 22: 3099-3108): Ki=IC50/(1+[C*]/KD*) where [C*] is the concentration of the radioligand and KD* its dissociation constant. A weighted non linear least-squares curve fitting program LIGAND (Munson et al., Anal. Biochem 1980, 107: 220-239) is used for computer analysis of inhibition experiments Data are expressed as geometric mean with 95% confidence limits in parentheses. Examples of Animal Models
Take `CCCn1c(=O)c2[nH]c(-c3cc(C)n(CC(=O)Nc4ccccc4)n3)nc2n(CCC)c1=O` [Example 1, 2-[3-(2,6-Dioxo-1,3-dipropyl-2,3,6,7-tetrahydro-1H-purin-8-yl)-5-methyl-pyrazol-1-yl]-N-phenyl-acetamide]: the Ki is over 1000 nM.
On the same count and under the same terms, in the case of `CCCn1c(=O)c2[nH]c(-c3cc(C)n(CC(=O)Nc4ccc(I)cc4)n3)nc2n(CCC)c1=O` [Example 2, 2-[3-(2,6-Dioxo-1,3-dipropyl-2,3,6,7-tetrahydro-1H-purin-8-yl)-5-methyl-pyrazol-1-yl]-N-(4-iodophenyl)-acetamide] it was over 1000 nM; in that of `CCCn1c(=O)c2[nH]c(-c3cc(C)n(CC(=O)Nc4ccc(F)cc4)n3)nc2n(CCC)c1=O` [Example 5, 2-[3-(2,6-Dioxo-1,3-dipropyl-2,3,6,7-tetrahydro-1H-purin-8-yl)-5-methyl-pyrazol-1-yl]-N-(4-fluoro-phenyl)-acetamide], over 1000 nM; in that of `CCCn1c(=O)c2[nH]c(-c3cc(C)n(CC(=O)Nc4ccc(OC)cc4)n3)nc2n(CCC)c1=O` [Example 6, 2-[3-(2,6-Dioxo-1,3-dipropyl-2,3,6,7-tetrahydro-1H-purin-8-yl)-5-methyl-pyrazol-1-yl]-N-(4-methoxyphenyl)-acetamide], over 1000 nM.
For the compound `CCCn1c(=O)c2[nH]c(-c3cc(C)n(CC(=O)Nc4ccc(C)c(C)c4)n3)nc2n(CCC)c1=O` [Example 7, 2-[3-(2,6-Dioxo-1,3-dipropyl-2,3,6,7-tetrahydro-1H-purin-8-yl)-5-methyl-pyrazol-1-yl]-N-(3,4-dimethylphenyl)-acetamide], the Ki was over 1000 nM.
On the same count and under the same terms, the value for `CCCn1c(=O)c2[nH]c(-c3cc(C)n(CC(=O)Nc4ccc(OC)c(OC)c4)n3)nc2n(CCC)c1=O` [Example 8, 2-[3-(2,6-Dioxo-1,3-dipropyl-2,3,6,7-tetrahydro-1H-purin-8-yl)-5-methyl-pyrazol-1-yl]-N-(3,4-dimethoxyphenyl)-acetamide] was over 1000 nM; that for `CCCn1c(=O)c2[nH]c(-c3ccn(CC(=O)Nc4ccc(Cl)cc4)n3)nc2n(CCC)c1=O` [Example 10, 2-[3-(2,6-Dioxo-1,3-dipropyl-2,3,6,7-tetrahydro-1H-purin-8-yl)-pyrazol-1-yl]-N-(4-chloro-phenyl)-acetamide] was over 1000 nM; that for `CCCn1c(=O)c2[nH]c(-c3cc(C)n(CC(=O)Nc4ccc(C(C)CC)cc4)n3)nc2n(CCC)c1=O` (stereo not drawn) [Example 12, 2-[3-(2,6-Dioxo-1,3-dipropyl-2,3,6,7-tetrahydro-1H-purin-8-yl)-5-methyl-pyrazol-1-yl]-N-(4-sec-butylphenyl)-acetamide] was over 1000 nM.
On to `CCCn1c(=O)c2[nH]c(-c3cc(C)n(CC(=O)Nc4cccc(OC)c4)n3)nc2n(CCC)c1=O` [Example 14, 2-[3-(2,6-Dioxo-1,3-dipropyl-2,3,6,7-tetrahydro-1H-purin-8-yl)-5-methyl-pyrazol-1-yl]-N-(3-methoxylphenyl)-acetamide], for which the Ki is over 1000 nM.
On the same count and under the same terms, in the case of `CCCn1c(=O)c2[nH]c(-c3cc(C)n(CC(=O)Nc4cccc(Cl)c4)n3)nc2n(CCC)c1=O` [Example 15, 2-[3-(2,6-Dioxo-1,3-dipropyl-2,3,6,7-tetrahydro-1H-purin-8-yl)-5-methyl-pyrazol-1-yl]-N-(3-chlorophenyl)-acetamide] it was over 1000 nM; in that of `CCCn1c(=O)c2[nH]c(-c3cc(C)n(CC(=O)Nc4ccc(Cl)c(Cl)c4)n3)nc2n(CCC)c1=O` [Example 16, 2-[3-(2,6-Dioxo-1,3-dipropyl-2,3,6,7-tetrahydro-1H-purin-8-yl)-5-methyl-pyrazol-1-yl]-N-(3,4-dichlorophenyl)-acetamide], over 1000 nM.
On the same count and under the same terms, the value for `CCCn1c(=O)c2[nH]c(-c3cc(C)n(CC(=O)Nc4ccc(C)cc4)n3)nc2n(CCC)c1=O` [Example 17, 2-[3-(2,6-Dioxo-1,3-dipropyl-2,3,6,7-tetrahydro-1H-purin-8-yl)-5-methyl-pyrazol-1-yl]-N-p-tolyl-acetamide] was over 1000 nM; that for `CCCn1c(=O)c2[nH]c(-c3nn(CC(=O)Nc4ccc(Cl)cc4)c(C)c3Cl)nc2n(CCC)c1=O` [Example 18, 2-[4-Chloro-3-(2,6-dioxo-1,3-dipropyl-2,3,6,7-tetrahydro-1H-purin-8-yl)-5-methyl-pyrazol-1-yl]-N-(4-chlorophenyl)-acetamide] was over 1000 nM.
As to `CCCn1c(=O)c2[nH]c(-c3nn(CC(=O)Nc4ccc(Cl)cc4)c(C)c3Br)nc2n(CCC)c1=O` [Example 19, 2-[4-Bromo-3-(2,6-dioxo-1,3-dipropyl-2,3,6,7-tetrahydro-1H-purin-8-yl)-5-methyl-pyrazol-1-yl]-N-(4-chlorophenyl)-acetamide], the Ki is over 1000 nM.

In another assay the target is T2, human A3 adenosine receptors (Homo sapiens, UniProt P0DMS8).
T2 construct: expressed in transfected cells; host or cells: CHO cells (membranes)
T2 sequence (P0DMS8 1-318): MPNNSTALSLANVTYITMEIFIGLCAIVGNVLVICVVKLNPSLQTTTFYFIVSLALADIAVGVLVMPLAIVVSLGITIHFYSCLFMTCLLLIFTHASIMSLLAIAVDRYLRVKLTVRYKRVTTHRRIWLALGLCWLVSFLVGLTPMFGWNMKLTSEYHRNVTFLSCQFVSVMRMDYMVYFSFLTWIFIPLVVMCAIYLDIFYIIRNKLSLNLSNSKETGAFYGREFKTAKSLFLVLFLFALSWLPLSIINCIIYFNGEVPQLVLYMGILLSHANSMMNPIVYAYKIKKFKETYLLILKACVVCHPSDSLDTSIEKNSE
Nature of the assay: Displacement of [3H]MRE3008F20 binding at human A3 adenosine receptors expressed in CHO cells. Conditions: [3H]MRE3008F20 displacement, n = 3-6 (footnote mark c/d swapped), geometric mean (95% confidence limits), read-out: Ki hA3. The method, then:
The human adenosine receptors have been transfected in CHO cells according with the method previously described by Klotz et al. (Naunyn-Schmied. Arch Pharm. 1998, 357: 1-9). Briefly, the cells are grown adherently and maintained in Dulbecco's Modified Eagles Medium with nutrient mixture F12 (DMEM/F12) without nucleosides, containing 10% fetal calf serum, penicillin (100 U/mL), streptomycin (100 μg/mL), L-glutamine (2 mM) and Geneticin (G418, 0.2 mg/ml) at 37° C. in 5% CO2/95% air. For membrane preparation the culture medium is removed and the cells are washed with phosphate-buffered saline and scraped off T75 flasks in ice-cold hypo tonic buffer (5 mM Tris HCl, 1 mM EDTA, pH 7.4). […]
All new synthesized compounds have been tested to evaluate their affinity to human A1, A2A, A2B and A3 adenosine receptors. […] Non-specific binding is determined in the presence of 10 μM of CHA and this is always ≦10% of the total binding. […] Non-specific binding is determined in the presence of 1 μM ZM 241385 and is about 20% of total binding. […] Bound and free radioactivity are separated by filtering the assay mixture through Whatman GF/B glass fiber filters using a Micro-Mate 196 cell harvester (Packard Instrument Co.). The filter bound radioactivity is counted on a Top Count (efficiency 57%) with Micro-Scint 20. […]
Regarding `CCCn1c(=O)c2[nH]c(-c3cc(C)n(CC(=O)Nc4ccc(C(C)CC)cc4)n3)nc2n(CCC)c1=O` (stereo not drawn) [Example 12, 2-[3-(2,6-Dioxo-1,3-dipropyl-2,3,6,7-tetrahydro-1H-purin-8-yl)-5-methyl-pyrazol-1-yl]-N-(4-sec-butylphenyl)-acetamide], the Ki was over 1000 nM.
